Laboratory results: paper PMC12217463, “Functional and structural analyses of amino acid sequence variation in PDC β-lactamase reveal different mechanistic pathways toward cefiderocol resistance in Pseudomonas aeruginosa” (Antimicrobial Agents and Chemotherapy, 2025)
Values after ≈ are worked out from the molar mass of the structure shown.

Experiments:
Assay type in all cases: cell-based
PAO1 + blaPDC D217N = experiment: MIC, broth microdilution; settings: Pseudomonas aeruginosa
Excerpt: (§1) We took advantage of a previously constructed and characterized laboratory collection of recombinant P. aeruginosa PAO1 isolates expressing different blaPDC variants, but specifically enriched for this work with additional variants, following the previously described methodology ([17]). […] The final collection comprised 40 recombinant isolates (20 in PAO1 and 20 in PAO ΔpiuC) producing the wild-type PDC-1 variant from PAO1 and 19 derivatives carrying specific amino acid substitutions previously associated with the development of resistance to ceftazidime/avibactam, ceftolozane/tazobactam, or cefiderocol: T70I, F121L, P153L, G156D, A200T, G202S, ΔG202-E219, G214R, P215L, P215S, ΔP215-G222, D217N, E219K, E219G, E219D, S226ins, L293P, F121L + E219K, and F121L + G222S.
(§2) The MICs of ceftazidime, ceftazidime/avibactam, ceftolozane/tazobactam, cefepime, and cefiderocol were determined in triplicate, for all isolates, by reference broth microdilution assays. Avibactam and tazobactam were fixed at 4 mg/L. All assays were performed using cation-adjusted Mueller-Hinton broth (CAMHB), except for cefiderocol, which was determined in all cases using iron-depleted CAMHB, prepared according to CLSI M100 guidelines ([40]). EUCAST v.15.0 clinical breakpoints and guidelines (http://www.eucast.org/clinical_breakpoints/) were used for reference purposes. Reference strains Escherichia coli ATCC 25922, Klebsiella pneumoniae ATCC 700603, and P. aeruginosa ATCC 27853 were used as controls.

PAO1 + blaPDC E219D = experiment: MIC, broth microdilution; settings: Pseudomonas aeruginosa
Excerpt: as §1, §2

PAO1 + blaPDC E219K = experiment: MIC, broth microdilution; settings: Pseudomonas aeruginosa
Excerpt: as §1, §2

[1] = test system: PAO1 + blaPDC F121L + E219K; experiment: MIC, broth microdilution; settings: Pseudomonas aeruginosa
Excerpt: as §1, §2

PAO1 + blaPDC F121L = experiment: MIC, broth microdilution; settings: Pseudomonas aeruginosa
Excerpt: as §1, §2

PAO1 + blaPDC G156D = experiment: MIC, broth microdilution; settings: Pseudomonas aeruginosa
Excerpt: as §1, §2

PAO1 + blaPDC G202S = experiment: MIC, broth microdilution; settings: Pseudomonas aeruginosa
Excerpt: as §1, §2

PAO1 + blaPDC G214R = experiment: MIC, broth microdilution; settings: Pseudomonas aeruginosa
Excerpt: as §1, §2

PAO1 + blaPDC L293P = experiment: MIC, broth microdilution; settings: Pseudomonas aeruginosa
Excerpt: as §1, §2

PAO1 + blaPDC P153L = experiment: MIC, broth microdilution; settings: Pseudomonas aeruginosa
Excerpt: as §1, §2

PAO1 + blaPDC P215L = experiment: MIC, broth microdilution; settings: Pseudomonas aeruginosa
Excerpt: as §1, §2

PAO1 + blaPDC P215S = experiment: MIC, broth microdilution; settings: Pseudomonas aeruginosa
Excerpt: as §1, §2

PAO1 + blaPDC S226ins = experiment: MIC, broth microdilution; settings: Pseudomonas aeruginosa, avibactam and tazobactam fixed at 4 mg/L, FDC in iron-depleted CAMHB
Excerpt: as §1, §2

PAO1 + blaPDC T70I = experiment: MIC, broth microdilution; settings: Pseudomonas aeruginosa
Excerpt: as §1, §2

PAO1 + blaPDC ∆P215-G222 = experiment: MIC, broth microdilution; settings: Pseudomonas aeruginosa, avibactam and tazobactam fixed at 4 mg/L, FDC in iron-depleted CAMHB
Excerpt: as §1, §2

PAO1 + blaPDC-1 (WT) = experiment: MIC, broth microdilution; settings: Pseudomonas aeruginosa, avibactam and tazobactam fixed at 4 mg/L, FDC in iron-depleted CAMHB
Excerpt: as §1, §2

PAO1 = experiment: MIC, broth microdilution; settings: Pseudomonas aeruginosa; PAO1 wild type, no plasmid-borne PDC; avibactam and tazobactam fixed at 4 mg/L; FDC in iron-depleted CAMHB
Excerpt: as §1, §2

[2] = test system: E219K or L293P substitutions combined with inactivating mutations affecting iron uptake (∆piuC); experiment: MIC, E219K or L293P with impaired iron uptake; settings: Pseudomonas aeruginosa
Excerpt: as §1
as §2, with “Reference strains Escherichia coli ATCC 25922, Klebsiella pneumoniae ATCC 700603, and P. aeruginosa ATCC 27853 were used as controls.” left out

For CC(C)(O/N=C(\C(=O)N[C@@H]1C(=O)N2C(C(=O)[O-])=C(C[N+]3(CCNC(=O)c4ccc(O)c(O)c4Cl)CCCC3)CS[C@H]12)c1csc(N)n1)C(=O)O [FDC, cefiderocol], the MIC (PAO1 + blaPDC D217N) was 0.5 µg/mL (≈ 0.665 µM), the MIC (PAO1 + blaPDC E219D) was 0.5 µg/mL (≈ 0.665 µM) and the MIC (PAO1 + blaPDC E219K) was 4 µg/mL (≈ 5.32 µM). It also gave an MIC [1] of 4 µg/mL (≈ 5.32 µM), an MIC (PAO1 + blaPDC F121L) of 0.5 µg/mL (≈ 0.665 µM) and an MIC (PAO1 + blaPDC G156D) of 0.5 µg/mL (≈ 0.665 µM). It also gave an MIC (PAO1 + blaPDC G202S) of 0.5 µg/mL (≈ 0.665 µM), an MIC (PAO1 + blaPDC G214R) of 1 µg/mL (≈ 1.33 µM) and an MIC (PAO1 + blaPDC L293P) of 4 µg/mL (≈ 5.32 µM). The MIC (PAO1 + blaPDC P153L) was 0.5 µg/mL (≈ 0.665 µM), the MIC (PAO1 + blaPDC P215L) was 0.5 µg/mL (≈ 0.665 µM) and the MIC (PAO1 + blaPDC P215S) was 0.5 µg/mL (≈ 0.665 µM). For the same compound, the MIC (PAO1 + blaPDC S226ins) was 0.5 µg/mL, the MIC (PAO1 + blaPDC T70I) was 0.5 µg/mL (≈ 0.665 µM) and the MIC (PAO1 + blaPDC ∆P215-G222) was 2 µg/mL. It also gave an MIC (PAO1 + blaPDC-1 (WT)) of 0.25 µg/mL, an MIC (PAO1) of 0.125 µg/mL and an MIC [2] of at least 32 µg/mL.
